Data on 35 compounds can be found in patent publication US11053234B2 (GlaxoSmithKline Intellectual Property Development Limited, priority 2016, dated 2021).

Counter-ions that a name gives are not always drawn.

The assay addresses T1, haematopoietic prostaglandin D synthase (H-PGDS) (Homo sapiens, UniProt O60760).
T1 construct: Full length human H-PGDS cDNA (Invitrogen Ultimate ORF 10H13026) was amplified by PCR; 6-His (N); TEV protease cleavage site (N); made in house; host or cells: E. coli BL21 (DE3*), vector pET22b+
Kind of assay: H-PGDS RapidFire high throughput mass spectrometry assay (conversion of PGH2 to PGD2). It counts as biochemical. The note with it: 10 nM H-PGDS, PGH2 formed in situ by COX-2 from arachidonic acid; read-out: Potency Range (mean pIC50) (converted). The procedure, abridged: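 PGH2 substrate generated in situ by COX-2 (full-length human, FLAG-tagged, Sf9-expressed) from arachidonic acid at ˜10 μM, then converted by full-length human His-tagged H-PGDS (E. coli-expressed). RapidFire SPE–triple quadrupole MS measured PGD2 against PGF2α as substrate surrogate to give percent conversion.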

T1 sequence (O60760 whole entry): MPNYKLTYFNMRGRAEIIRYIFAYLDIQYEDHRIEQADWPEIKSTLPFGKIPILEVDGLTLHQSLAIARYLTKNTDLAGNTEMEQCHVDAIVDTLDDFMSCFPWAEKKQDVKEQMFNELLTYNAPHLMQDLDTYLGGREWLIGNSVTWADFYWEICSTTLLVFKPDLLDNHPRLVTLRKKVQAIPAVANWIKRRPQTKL

As to `O=C(c1csc(NC(=O)[C@H]2C[C@H](Oc3cccc4cccnc34)C2)n1)C1CC1` [Example 194, (trans)-N-(4-(Cyclopropanecarbonyl)thiazol-2-yl)-3-(quinolin-8-yloxy)cyclobutanecarboxamide], the IC50 was 10 to 79.4 nM.

For `CNC(=O)c1csc(NC(=O)[C@H]2C[C@H](Oc3cccc4cccnc34)C2)n1` [Example 196, N-Methyl-2-((trans)-3-(quinolin-8-yloxy)cyclobutanecarboxamido)thiazole-4-carboxamide, trifluoroacetic acid salt], the IC50 was 10 to 79.4 nM.

As to `CN(C)C(=O)c1csc(NC(=O)[C@H]2C[C@H](Oc3cccc4cccnc34)C2)n1` [Example 197, N,N-Dimethyl-2-((trans)-3-(quinolin-8-yloxy)cyclobutanecarboxamido)thiazole-4-carboxamide, trifluoroacetic acid salt], the IC50 is less than 10 nM.

Turning to `CC(C)c1nnc(NC(=O)[C@H]2C[C@H](Oc3cccc4cccnc34)C2)s1` [Example 198], the IC50 was 10 to 79.4 nM.

Regarding `O=C(Nc1nnc(C2CC2)s1)[C@H]1C[C@H](Oc2cccc3cccnc23)C1` [Example 199, (trans)-N-(5-Cyclopropyl-1,3,4-thiadiazol-2-yl)-3-(quinolin-8-yloxy)cyclobutanecarboxamide], the IC50 is 10 to 79.4 nM.

In the case of `CC(C)(O)c1csc(NC(=O)[C@H]2C[C@H](Oc3cccc4cccnc34)C2)n1` [Example 200, (trans)-N-(4-(2-Hydroxypropan-2-yl)thiazol-2-yl)-3-(quinolin-8-yloxy)cyclobutanecarboxamide], the IC50 was 10 to 79.4 nM.

For `O=C(Nc1nc(C(F)(F)F)cs1)[C@H]1C[C@H](Oc2cccc3cccnc23)C1` [Example 201, (trans)-3-(Quinolin-8-yloxy)-N-(4-(trifluoromethyl)thiazol-2-yl)cyclobutanecarboxamide], the IC50 is 10 to 79.4 nM.

`CC(=O)c1cnc(NC(=O)[C@H]2C[C@H](Oc3cccc4cccnc34)C2)s1` [Example 202, (trans)-N-(5-Acetylthiazol-2-yl)-3-(quinolin-8-yloxy)cyclobutanecarboxamide]: the IC50 is 10 to 79.4 nM.

Take `Cc1nnc(NC(=O)[C@H]2C[C@H](Oc3cccc4cccnc34)C2)s1` [Example 203, (trans)-N-(5-Methyl-1,3,4-thiadiazol-2-yl)-3-(quinolin-8-yloxy)cyclobutanecarboxamide]: the IC50 was 10 to 79.4 nM.

As for `CC(C)(O)c1cnc(NC(=O)[C@H]2C[C@H](Oc3cccc4cccnc34)C2)s1` [Example 204, (trans)-N-(5-(2-Hydroxypropan-2-yl)thiazol-2-yl)-3-(quinolin-8-yloxy)cyclobutanecarboxamide], the IC50 was 10 to 79.4 nM.

For `C=C(C)c1cnc(NC(=O)[C@H]2C[C@H](Oc3cccc4cccnc34)C2)s1` [Example 205, (trans)-N-(5-(Prop-1-en-2-yl)thiazol-2-yl)-3-(quinolin-8-yloxy)cyclobutanecarboxamide], the IC50 was less than 10 nM.

Regarding `CC(C)c1csc(NC(=O)[C@H]2C[C@H](Oc3cccc4cccnc34)C2)n1` [Example 206, (trans)-N-(4-Isopropylthiazol-2-yl)-3-(quinolin-8-yloxy)cyclobutanecarboxamide], the IC50 is less than 10 nM.

With `O=C(Nc1nc(C2CC2)cs1)[C@H]1C[C@H](Oc2cccc3cccnc23)C1` [Example 207, (trans)-N-(4-Cyclopropylthiazol-2-yl)-3-(quinolin-8-yloxy)cyclobutanecarboxamide], the IC50 was less than 10 nM.

`O=C(Nc1ncco1)[C@H]1C[C@H](Oc2cccc3cccnc23)C1` [Example 208, (trans)-N-(Oxazol-2-yl)-3-(quinolin-8-yloxy)cyclobutanecarboxamide]: the IC50 is 100 to 1000 nM.

Turning to `CC(C)(O)Cc1csc(NC(=O)[C@H]2C[C@H](Oc3cccc4cccnc34)C2)n1` [Example 209, (trans)-N-(4-(2-Hydroxy-2-methylpropyl)thiazol-2-yl)-3-(quinolin-8-yloxy)cyclobutanecarboxamide trifluoroacetic acid salt], the IC50 was 10 to 79.4 nM.

Take `O=C(Nc1ncc(CO)s1)[C@H]1C[C@H](Oc2cccc3cccnc23)C1` [Example 210, (trans)-N-(5-(Hydroxymethyl)thiazol-2-yl)-3-(quinolin-8-yloxy)cyclobutanecarboxamide]: the IC50 is 10 to 79.4 nM.

As to `CC(C)(C)c1csc(NC(=O)[C@H]2C[C@H](Oc3cccc4cccnc34)C2)n1` [Example 211, (trans)-N-(4-(tert-Butyl)thiazol-2-yl)-3-(quinolin-8-yloxy)cyclobutanecarboxamide], the IC50 was 10 to 79.4 nM.

Take `CC(C)(O)Cc1cnc(NC(=O)[C@H]2C[C@H](Oc3cccc4cccnc34)C2)s1` [Example 213, (trans)-N-(5-(2-Hydroxy-2-methylpropyl)thiazol-2-yl)-3-(quinolin-8-yloxy)cyclobutanecarboxamide]: the IC50 is 10 to 79.4 nM.

Consider `Cn1nc(C2CC2)cc1NC(=O)[C@H]1C[C@H](Oc2cccc3cccnc23)C1` [Example 214, (trans)-N-(3-Cyclopropyl-1-methyl-1H-pyrazol-5-yl)-3-(quinolin-8-yloxy)cyclobutanecarboxamide], for which the IC50 is 100 to 1000 nM.

Take `O=C(Nc1nc(CO)cs1)[C@H]1C[C@H](Oc2cccc3cccnc23)C1` [Example 215, (trans)-N-(4-(Hydroxymethyl)thiazol-2-yl)-3-(quinolin-8-yloxy)cyclobutanecarboxamide]: the IC50 was 10 to 79.4 nM.

In the case of `O=C(Nc1nncs1)[C@H]1C[C@H](Oc2cccc3cccnc23)C1` [Example 216, (trans)-3-(Quinolin-8-yloxy)-N-(1,3,4-thiadiazol-2-yl)cyclobutanecarboxamide], the IC50 is 10 to 79.4 nM.

For the compound `Cc1cnc(NC(=O)[C@H]2C[C@H](Oc3cccc4cccnc34)C2)s1` [Example 217, (trans)-N-(5-Methylthiazol-2-yl)-3-(quinolin-8-yloxy)cyclobutanecarboxamide], the IC50 was 10 to 79.4 nM.

For the compound `Cc1csc(NC(=O)[C@H]2C[C@H](Oc3cccc4cccnc34)C2)n1` [Example 218, (trans)-N-(4-Methylthiazol-2-yl)-3-(quinolin-8-yloxy)cyclobutanecarboxamide], the IC50 is 10 to 79.4 nM.

`CS(=O)(=O)N1CCC(NC(=O)[C@H]2C[C@H](Oc3cccc4cccnc34)C2)CC1` [Example 219, (trans)-N-(1-(Methylsulfonyl)piperidin-4-yl)-3-(quinolin-8-yloxy)cyclobutanecarboxamide]: the IC50 is 100 to 1000 nM.

On to `CC(C)(O)CO[C@H]1CC[C@H](NC(=O)[C@H]2C[C@H](Oc3cccc4cccnc34)C2)CC1` [Example 220, (trans)-N-((trans)-4-(2-Hydroxy-2-methylpropoxy)cyclohexyl)-3-(quinolin-8-yloxy)cyclobutanecarboxamide], for which the IC50 is 100 to 1000 nM.

Turning to `O=C(Nc1nccs1)[C@H]1C[C@H](Nc2cccc3cccnc23)C1` [Example 221, (trans)-3-(Quinolin-8-ylamino)-N-(thiazol-2-yl)cyclobutanecarboxamide], the IC50 was 100 to 1000 nM.

On to `CC(C)(O)[C@H]1CC[C@H](NC(=O)[C@H]2C[C@H](Nc3cccc4cccnc34)C2)CC1` [Example 222, (trans)-N-((trans)-4-(2-Hydroxypropan-2-yl)cyclohexyl)-3-(quinolin-8-ylamino)cyclobutanecarboxamide], for which the IC50 was 100 to 1000 nM.

For `CC(C)(O)[C@H]1C[C@H](NC(=O)[C@H]2C[C@H](Oc3cccc4cccnc34)C2)C1` [Example 223, (trans)-N-((trans)-3-(2-Hydroxypropan-2-yl)cyclobutyl)-3-(quinolin-8-yloxy)cyclobutanecarboxamide], the IC50 was 100 to 1000 nM.

Take `O=C(NC1CCN(CC(F)(F)F)CC1)[C@H]1C[C@H](Oc2cccc3cccnc23)C1` [Example 224, (trans)-3-(Quinolin-8-yloxy)-N-(1-(2,2,2-trifluoroethyl)piperidin-4-yl)cyclobutanecarboxamide]: the IC50 is 10 to 79.4 nM.

Regarding `CC(C)(O)[C@H]1CC[C@H](NC(=O)[C@H]2C[C@H](Oc3cccc4cccnc34)C2)CC1` [Example 225, N-((trans)-4-(2-Hydroxypropan-2-yl)cyclohexyl)-3-(quinolin-8-yloxy)cyclobutanecarboxamide], the IC50 was 10 to 79.4 nM.

For `CC(C)(O)[C@H]1CC[C@H](NC(=O)N2CC(Oc3csc4cccnc34)C2)CC1` [Example 226, N-((trans)-4-(2-Hydroxypropan-2-yl)cyclohexyl)-3-(thieno[3,2-b]pyridin-3-yloxy)azetidine-1-carboxamide], the IC50 is 10 to 79.4 nM.

`CC(C)(O)[C@H]1CC[C@H](NC(=O)[C@H]2C[C@H](Oc3cc(F)cc4ccoc34)C2)CC1` [Example 227, (trans)-3-((5-Fluorobenzofuran-7-yl)oxy)-N-((trans)-4-(2-hydroxypropan-2-yl)cyclohexyl)cyclobutanecarboxamide]: the IC50 is 10 to 79.4 nM.

As to `CC(C)(O)[C@H]1CC[C@H](NC(=O)[C@H]2C[C@H](Oc3cccc(Br)c3)C2)CC1` [Example 228, (trans)-3-(3-Bromophenoxy)-N-((trans)-4-(2-hydroxypropan-2-yl)cyclohexyl)cyclobutanecarboxamide], the IC50 is 100 to 1000 nM.

As to `CC(C)(O)[C@H]1CC[C@H](NC(=O)[C@H]2C[C@H](Oc3cc(F)ccc3F)C2)CC1` [Example 229, (trans)-3-(2,5-Difluorophenoxy)-N-((trans)-4-(2-hydroxypropan-2-yl)cyclohexyl)cyclobutanecarboxamide], the IC50 is 100 to 1000 nM.

Turning to `CC(C)(O)[C@H]1CC[C@H](NC(=O)[C@H]2C[C@H](Oc3cc(F)ccc3Cl)C2)CC1` [Example 230, (trans)-3-(2-Chloro-5-fluorophenoxy)-N-((trans)-4-(2-hydroxypropan-2-yl)cyclohexyl)cyclobutanecarboxamide], the IC50 was 100 to 1000 nM.
